The values that follow come from US11028061B2, “Modulators of myocyte lipid accumulation and insulin resistance and methods of use thereof” (Sanford Burnham Prebys Medical Discovery Institute, priority 2015, dated 2021).

Molecules are shown by their SMILES. Where two headings read alike, the source gives them in different places.

The subject of series [1] is primary murine skeletal myocytes. Briefly: TAG accumulation in primary murine skeletal myocytes. The class given is cell-based. As to conditions: Mus musculus, read-out: Activity Score (IC50), triacylglyceride (TAG) accumulation.
A further series has as its system human skeletal myotubes. As to the kind of experiment: Triglyceride accumulation in oleate-loaded human skeletal myotubes. The class given is cell-based. The protocol: Human skeletal myotubes were differentiated for 8 days. On day 7, 100 μM of oleic acid complexed to fatty acid-free BSA was added to the cells with the indicated concentration of test compound for 24 hours. Following incubation with oleate and compound, cells were formaldehyde fixed and stained with AdipoRed™ (Lonza). Triglyceride accumulation was measured using signal intensity at excitation 540/emission 590 nm (Bio-Tek Instruments, Inc.). Dose response curves were generated in Prism 6 (GraphPad Software). EC50 values were calculated using non-linear regression analysis. For biochemical measurement of triglyceride, human skeletal myotubes were incubated with oleate-BSA and test compound as described above. After 24 hour incubation, cells were collected with a lysis buffer containing 0.1% IGEPAL CA-630 (Sigma-Aldrich) in PBS. The harvested cells were sonicated for 5 seconds and then centrifuged at 10,000×g for 10 minutes at 4° C. The supernatant was removed and stored on ice. TAG levels were quantified using Infinity™ Triglycerides Liquid Stable Reagent (Thermo Scientific), following the manufacturer's instructions for colorimetric assay.
Student's t-test, Mann Whitney test, one-way ANOVA with Bonferroni post hoc test, or two-way ANOVA with Tukey post hoc test was performed to determine statistical significance as indicated. […]

Series [2] in a line: Plasma concentration in high fat diet mice. The class given is in vivo. As to conditions: male, C57BL/6J, mouse, sc, 4 hours following the final dose, 50 mg/kg s.c. once daily for 7 days. The protocol: (§1) All animal studies were performed in accordance with the National Institute of Health guidelines for humane treatment of animals and approved by the IACUC of the Sanford Burnham Prebys Medical Discovery Institute at Lake Nona. Six week old male C57BL/6J mice were obtained from Jackson Laboratory (stock number 000664) and acclimated for 1 week prior to study. Mice were maintained on standard chow or a 60% high fat diet (Research Diets, USA) for 8 weeks. SBI-993 was dissolved in a vehicle containing 2% DMSO, 2% Tween-80, and 96% water (pH9.0). Seven weeks after HFD feeding, mice were subcutaneously injected with SBI-993 (50 mg/kg mouse body weight) once daily for 7 days. Each group contains 6-10 mice and three independent experiments were conducted.
(§2) To determine if the effects conferred by SBI-477 observed in myocytes in culture are relevant in vivo, studies were conducted in C57BL/6 mice with diet-induced obesity. […] Mice were fed a 60% high fat diet (HFD) for 8 weeks resulting in significant weight gain (FIG. 6I). During the final week of HFD feeding, SBI-993 or vehicle control was administered as a once daily dose (50 mg/kg s.c.) for 7 days.

Another series has as its system ARRDC4. As to the kind of experiment: ARRDC4 expression by quantitative RT-PCR in human myotubes. The format is cell-based. Particulars: 24 hours. The protocol: FIGS. 4A-C show downregulation of TXNIP and ARRDC4 expression by SBI-477. (FIG. 4A) TXNIP and ARRDC4 mRNA levels as determined by quantitative RT-PCR in human myotubes treated with SBI-477 (10 μM) or DGAT1 inhibitor (DGATi, […]) for 24 hours in the absence or presence of 100 μM oleate (n=4). Expression is shown relative to vehicle/BSA treatment. (FIG. 4B) TXNIP gene expression following exposure to a dose range of SBI-477 for 24 hours (n=4). (FIG. 4C) Left, Effect of SBI-477 on TXNIP protein levels as determined by western blot analysis by SBI-477. Right, Quantitation of the TXNIP western blot data is shown (n=5). *p<0.05 vs. Vehicle/BSA control, †p<0.05 vs. Vehicle/oleate by one-way ANOVA with Bonferroni post hoc test. The data are shown as mean±SD.
Total RNA was isolated using RNeasy Mini Kit (Qiagen) according to the manufacturer's instructions. cDNA was synthesized using the Affinity Script cDNA Synthesis Kit (Stratagene) with 0.5 μg of total RNA. PCR reactions were performed in triplicate […] Roche LightCycler® 480 Instrument II) with specific primers for each gene.

For series [3], the system named is C57BL/6 mice with diet-induced obesity. Briefly: Diet-induced obesity (60% high fat diet) mouse study. As to conditions: HFD mice. The format is in vivo. The protocol: Following a 5 hour fast, a blood sample was obtained from the tail tip for the measurement of baseline glucose using a hand-held glucometer (Accu-Chek Aviva Plus, Roche). A bolus of glucose (1 g/kg) was then administered via i.p. injection. Blood samples were obtained at 5, 15, 30, 60 and 90 minutes following the glucose bolus for measurement of blood glucose. For detection of insulin signaling, mice were fasted for 5 hours on the last day of the study. Gastrocnemius skeletal muscle and liver tissues were harvested 10 minutes after an acute insulin administration (1.5 U/kg, i.p.) and immediately snap frozen. The tissue samples were homogenized in RIPA buffer containing 1% NP-40, 5 mM Na4P2O7, 1 mM EDTA, 20 mM NaF, 2 mM Na3VO4, 1× Complete protease inhibitor (Roche) and 1 mM phenylmethylsulfonyl fluoride. Western blot analysis for levels of phospho-Akt (S473) and total Akt was then performed.
as §1, §2

[4] abbreviates: primary murine skeletal myocytes.
[5] abbreviates: muscle and liver, 50 mg/kg s.c. 7 days.

A word on the IC50: it is the point on the concentration scale where inhibition reaches its midpoint. Regarding `COc1ccc(-c2csc(NC(=O)c3ccc(NCC(=O)N4CCOCC4)cc3)n2)cc1` [Cpd. 66, N-(4-(4-methoxyphenyl)thiazol-2-yl)-4-((2-morpholino-2-oxoethyl)amino)benzamide], the IC50 in series [1] (setting [4]) was less than 1 µM. For the same molecule, in the series with human skeletal myotubes, the “Potency compared with SBI-477 (inhibition of triglyceride accumulation, FIG. 6H)” value is listed as “improved potency”. Moreover, in series [2], the concentration at 4 h worked out at 4.97 ± 0.97 µM. For the same molecule, the ARRDC4 expression entry in the series on ARRDC4 is given as “to a similar degree as SBI-477”. In series [3] (50 mg/kg s.c. 7 days), the “Glucose tolerance (1 g/kg glucose, i.p.)” value is reported as “improved glucose tolerance”; the Hepatic steatosis result was “substantially ameliorated”; the “TAG levels in skeletal muscle” value was “significantly reduced”. In addition, the “Body weight compared to vehicle” value in series [3] (50 mg/kg s.c. once daily for 7 days) is reported as “small but significant reduction”. Further, the Food intake entry in series [3] (data not shown) is on record as “not due to reduced food intake”. Moreover, the “Occupation of ChREBP and MondoA on Txnip and Pklr gene promoters (ChIP)” value in series [3] (liver, 1 week administration) is “reduced in liver”. Besides, the “Insulin signaling (phosphorylated Akt S473) after acute insulin challenge” value in series [3] (muscle and liver) is “improved insulin signaling”. Also, in series [3] (setting [5]), the “Expression of TAG synthesis and lipogenic genes” value is reported as “reduced the expression”; the “Txnip and Arrdc4 expression” value is “reduced Txnip and Arrdc4 expression”.
With `COc1cccc(-c2csc(NC(=O)c3cccc(OCC(=O)N4CCOCC4)c3)n2)c1` [Cpd. 96, N-(4-(3-methoxyphenyl)thiazol-2-yl)-3-(2-morpholino-2-oxoethoxy)benzamide], the IC50 in series [1] (setting [4]) lay in the range of 1 to 10 µM.
Take `COc1cc(C(=O)Nc2nc(-c3ccc4c(c3)OCO4)cs2)ccc1OCC(=O)N1CCOCC1` [Cpd. 39, N-(4-(benzo[d][1,3]dioxol-5-yl)thiazol-2-yl)-3-methoxy-4-(2-morpholino-2-oxoethoxy)benzamide]: the concentration for half-maximal inhibition (IC50) in series [1] (setting [4]) was in the range of 1 to 10 µM.
On the same count and under the same terms, the result for `COc1cc(C(=O)Nc2nc(-c3ccc([N+](=O)[O-])cc3)cs2)ccc1OCC(=O)N1CCOCC1` [Cpd. 33, 3-methoxy-4-(2-morpholino-2-oxoethoxy)-N-(4-(4-nitrophenyl)thiazol-2-yl)benzamide] reads less than 1 µM; that for `COc1ccc(Cc2cnc(NC(=O)c3ccc(OCC(=O)N4CCOCC4)c(OC)c3)s2)cc1` [Cpd. 98, 3-methoxy-N-(5-(4-methoxybenzyl)thiazol-2-yl)-4-(2-morpholino-2-oxoethoxy)benzamide], 1 to 10 µM; that for `COc1ccc(-c2csc(NC(=O)c3ccc(OCC(N)=O)c(OC)c3)n2)cc1` [Cpd. 17, 4-(2-amino-2-oxoethoxy)-3-methoxy-N-(4-(4-methoxyphenyl)thiazol-2-yl)benzamide], 1 to 10 µM.
For `COc1ccc(-c2csc(C(=O)Nc3ccc(OCC(=O)N4CCOCC4)c(OC)c3)n2)cc1` [Cpd. 91, N-(3-methoxy-4-(2-morpholino-2-oxoethoxy)phenyl)-4-(4-methoxyphenyl)thiazole-2-carboxamide], the IC50 in series [1] was more than 10 µM.
The same measure, in the same setting: the same measure for `COc1ccc(-c2csc(NC(=O)c3ccc(OCC(=O)N4CCC(=O)CC4)c(OC)c3)n2)cc1` [Cpd. 12, 3-methoxy-N-(4-(4-methoxyphenyl)thiazol-2-yl)-4-(2-oxo-2-(4-oxopiperidin-1-yl)ethoxy)benzamide]: 1 to 10 µM.
`COCCNC(=O)CNc1ccc(C(=O)Nc2nc(-c3ccc(OC)cc3)cs2)cc1` [compound 69, 4-((2-((2-methoxyethyl)amino)-2-oxoethyl)amino)-N-(4-(4-methoxyphenyl)thiazol-2-yl)benzamide]: the IC50 in series [1] (setting [4]) is more than 10 µM.
With `COc1ccc(-c2csc(NCc3ccc(OCC(=O)N4CCOCC4)c(OC)c3)n2)cc1` [Cpd. 89, 2-(2-methoxy-4-(((4-(4-methoxyphenyl)thiazol-2-yl)amino)methyl)phenoxy)-1-morpholinoethan-1-one], in series [1] (setting [4]), the IC50 was in the range of 1 to 10 µM.
The same measure, in the same setting: the same measure for `COc1ccc(-c2csc(NC(=O)c3ccc(NCC(=O)N(C)C)cc3)n2)cc1` [compound 68, 4-((2-(dimethylamino)-2-oxoethyl)amino)-N-(4-(4-methoxyphenyl)thiazol-2-yl)benzamide]: less than 1 µM.
On the same count and under the same terms, the result for `O=C(Nc1nc(-c2ccccc2Cl)cs1)c1ccc(OCC(=O)N2CCOCC2)cc1` [Cpd. 48, N-(4-(2-chlorophenyl)thiazol-2-yl)-4-(2-morpholino-2-oxoethoxy)benzamide] reads less than 1 µM; that for `COc1cc(C(=O)Nc2nc(-c3ccccc3)cs2)ccc1OCC(=O)N1CCOCC1` [Cpd. 25, 3-methoxy-4-(2-morpholino-2-oxoethoxy)-N-(4-phenylthiazol-2-yl)benzamide], less than 1 µM.
The same measure, in the same setting: the same measure for `COc1cc(C(=O)Nc2nc(-c3ccc(OC(C)C)cc3)cs2)ccc1OCC(=O)N1CCOCC1` [Cpd. 29, N-(4-(4-isopropoxyphenyl)thiazol-2-yl)-3-methoxy-4-(2-morpholino-2-oxoethoxy)benzamide]: less than 1 µM; for `COc1cc(C(=O)Nc2nc(-c3ccc(C#N)cc3)cs2)ccc1OCC(=O)N1CCOCC1` [Cpd. 32, N-(4-(4-cyanophenyl)thiazol-2-yl)-3-methoxy-4-(2-morpholino-2-oxoethoxy)benzamide]: less than 1 µM.
Turning to `COCCCNC(=O)COc1ccc(C(=O)Nc2nc(-c3ccc(OC)cc3)cs2)cc1OC` [Cpd. 21, 3-methoxy-N-(4-(4-methoxyphenyl)thiazol-2-yl)-4-(2-((3-methoxypropyl)amino)-2-oxoethoxy)benzamide], the IC50 in series [1] (setting [4]) was 1 to 10 µM.
Still for that read-out and setting: the result for `COc1ccc(-c2csc(NC(=O)c3ccc(OCC(=O)N4CCOCC4)c(OC)c3)n2)c(OC)c1` [Cpd. 36, N-(4-(2,4-dimethoxyphenyl)thiazol-2-yl)-3-methoxy-4-(2-morpholino-2-oxoethoxy)benzamide] reads less than 1 µM.
The same measure, in the same setting: the result for `COc1ccc(-c2csc(NC(=O)c3ccc(OCC(=O)NCc4ccccn4)c(OC)c3)n2)cc1` [Cpd. 24, 3-methoxy-N-(4-(4-methoxyphenyl)thiazol-2-yl)-4-(2-oxo-2-((pyridin-2-ylmethyl)amino)ethoxy) Benzamide] reads more than 10 µM.
The same measure, in the same setting: the result for `COc1cc(C(=O)Nc2nc(-c3ccc(C)cc3)cs2)ccc1OCC(=O)N1CCOCC1` [Cpd. 30, 3-methoxy-4-(2-morpholino-2-oxoethoxy)-N-(4-(p-tolyl)thiazol-2-yl)benzamide] reads less than 1 µM; that for `O=C(Nc1nc2ccccc2s1)c1ccc(OCC(=O)N2CCOCC2)cc1` [Cpd. 87, N-(benzo[d]thiazol-2-yl)-4-(2-morpholino-2-oxoethoxy)benzamide], more than 10 µM; that for `Cc1ccccc1-c1csc(NC(=O)c2ccc(OCC(=O)N3CCOCC3)cc2)n1` [Cpd. 47, 4-(2-morpholino-2-oxoethoxy)-N-(4-(o-tolyl)thiazol-2-yl)benzamide], less than 1 µM.
